In general, MRT refers to a mean duration of stay, worked out from the concentration-time curve. Usually IC50 stands for the midpoint of a concentration-inhibition curve.

Data set [1] is described as follows: Rat pharmacokinetics (cassette IV or screening IV/PO). The format is in vivo. To be noted: male; rat plasma, mean residence time. Here is the method: Plasma pharmacokinetic parameters for clearance, volume of distribution, half-life and mean residence time (MRT) were determined in rats from IV cassette administration studies. 2 male rats typically weighing 225-260 gram, were fasted overnight prior to dosing. Compounds were prepared for IV dosing by addition to a vehicle, depending on the dose used. For a typical preparation, 1 mg per mL (IV) of up to 5 test compounds were added to vehicle comprised of 20% dimethyl sulfoxide (DMSO), 60% polyethylene glycol 400 (PEG400) and 20% water. IV formulation was administered to 2 rats via pre-cannulated jugular vein. Blood was collected by pre-cannulated artery, typically at predose, 2, 8, 15, 30 min. 1, 2, 4, 6, and 8 hr postdose. Samples were collected in K2EDTA tubes, stored on ice, and centrifuged. Plasma was transferred to a micro titer plate and stored at −70° C.until analysis. Plasma samples were extracted using protein precipitation and analyzed by liquid chromatography separation followed by mass spec detection (LCMS/MS), using a standard curve for each compound. Plasma pharmacokinetic parameters were calculated by non-compartmental methods.
Plasma pharmacokinetic parameters for clearance, volume of distribution, half-life, mean residence time (MRT) and oral bioavailability (%F)-were determined in rats from oral administration and IV administration studies. 4 male rats, typically weighing 225-260 gram, were fasted overnight prior to dosing. Compounds were prepared for oral and IV dosing by addition to a vehicle, depending on the dose used. For a typical preparation, 1 mg per mL (IV) or 1.5 mg per mL (oral) of test compound was added to vehicle comprised of 20% dimethyl sulfoxide (DMSO), 60% polyethylene glycol 400 (PEG400) and 20% water. IV formulation was administered to 2 rats via pre-cannulated jugular vein, and oral dosing was administered to 2 rats via oral gavage. Blood was collected by pre-cannulated artery, typically at predose, 2 min, 8 min, 15 min. 30 min, and 1, 2, 4, 6, and 8 hr postdose for IV, and at predose, 15 min, 30 min, and 1, 2, 4, 6, 8 hr for oral dosing. Samples were collected in K2EDTA tubes, stored on ice, and centrifuged. Plasma was transferred to a micro titer plate and stored at −70° C. until analysis. Plasma samples were extracted using protein precipitation and analyzed by liquid chromatography separation followed by mass spec detection (LCMS/MS), using a standard curve for each compound. Plasma pharmacokinetic parameters were calculated for IV and oral dosing data by non-compartmental methods. Oral bioavailability was determined as the ratio of the dose-normalized plasma area under the curve (AUC) following oral dosing vs. IV dosing.

Another data set has as its target T1, human tissue kallikrein (Homo sapiens, UniProt P06870).
T1 construct: purchased Ray Biotech or Evotec 228-10996
Briefly: Inhibition of tissue kallikrein enzymatic activity. To be noted: human tissue kallikrein 5 nM, N-acetyl-KPR-AFC substrate, 25° C., pH 7.4; read-out: tKal IC50. The format is biochemical. Here is the method:
Compounds were assayed with human tissue kallikrein (Ray Biotech, Cat # 228-10996 or Evotec, final concentration 5 nM) in 50 mM HEPES, 150 mM NaCl, 5 mM CaCl2, 0.1% PEG-8000, pH 7.4 at 25° C. in a Corning 3575 non-binding surface microplate. Compounds were tested in 10-point dose titrations starting at 166.67 uM with a 3-fold dilution series. Tissue kallikrein enzymatic activity was determined by measuring the rate of cleavage of N-acetyl-KPR-AFC substrate (Sigma, Cat # C6608, final concentration 100 uM) by continuously monitoring the fluorescence at 400/505 nm using a Tecan Safire plate-reader. The initial reaction rates (0) to 20 minutes) were used to determine percent inhibition. The % Inhibition for each data point was recalculated from the RFU/min data and analyzed using the log(inhibitor) vs. response four parameters equation with the GraphPad Prism software.

A short description of data set [2]: High-throughput (HT) solubility determination. The conditions noted are these: kinetic from dmso stock. The format is physicochemical. As to the method:
The chromatographic system consists of an Agilent 1290 UPLC/DAD system and ChemStation software, both from Agilent Technologies, USA. The separations are carried out on a Supelco Ascentis Express C18, 30 mm×3.0 mm I.D., 2.7 μm HPLC column. The mobile phase consists of Potassium phosphate buffered at pH 7 (mobile phase A) and acetonitrile (mobile phase B). The column oven temperature is set to 30° C. and the UPLC analysis consists of a gradient. The injection volume is 2 μL and the spectrophotometric detection is set to 215 and 238 nm.
A 10 mM stock solution of the compound in DMSO is supplied for analysis. 2.5 μL of stock solution (10 mM) was diluted into 247.5 μL of organic co-solvents (10% MeCN/80% MeOH/10% DMSO, v/v/v) to create a standard solution of 100 μM. To create the solubility solutions, 4.1 μL of 10 mM DMSO stock solution was diluted into […] of phosphate buffered saline (PBS) (pH 7) solution. A second 4.1 μL aliquot of 10 mM DMSO stock solution was added to 196 μL of PBS (pH 2) solution. A third 4.1 uL aliquot of 10 mM DMSO stock solution was added to 196 uL of FaSSIF (pH 6.5) solution. […] The equilibrated solubility solutions were filtered by centrifugation using a filter (0.45 μm, polypropylene). 50 μL each of the 100 μM standard solution and the filtered equilibrated solubility solutions were placed into a 384 well plate, and the plate was subsequently heat sealed.
Each standard and solubility solution was analyzed by UPLC/DAD. The solubility value was calculated by the following equation: Solubility=(Peak area of sample/Peak area of standard) (Standard concentration)

The target in data set [3] is T2, Human Norepinephrine Transporter (NET) (Homo sapiens, UniProt P23975).
T2 construct: host or cells: MDCK cells
T2 sequence (P23975 whole entry): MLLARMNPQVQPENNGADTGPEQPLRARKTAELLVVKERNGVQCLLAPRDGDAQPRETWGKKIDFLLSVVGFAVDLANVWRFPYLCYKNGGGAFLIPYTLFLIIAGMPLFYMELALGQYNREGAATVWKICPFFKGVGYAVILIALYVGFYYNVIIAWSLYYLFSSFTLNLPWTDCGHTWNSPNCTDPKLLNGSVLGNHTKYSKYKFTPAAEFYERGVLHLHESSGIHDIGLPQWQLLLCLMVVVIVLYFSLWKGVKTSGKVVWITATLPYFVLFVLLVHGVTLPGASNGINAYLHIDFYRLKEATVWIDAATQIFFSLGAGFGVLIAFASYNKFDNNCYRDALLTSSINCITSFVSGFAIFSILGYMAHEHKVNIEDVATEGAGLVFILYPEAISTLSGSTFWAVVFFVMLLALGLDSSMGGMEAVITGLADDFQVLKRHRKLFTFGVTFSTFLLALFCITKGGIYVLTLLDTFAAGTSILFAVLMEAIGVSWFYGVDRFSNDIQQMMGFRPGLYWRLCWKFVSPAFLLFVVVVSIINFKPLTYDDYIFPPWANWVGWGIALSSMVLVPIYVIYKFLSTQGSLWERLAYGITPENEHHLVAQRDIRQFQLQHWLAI
Briefly: Norepinephrine Transporter functional antagonist uptake assay. It counts as cell-based. To be noted: [3H]Norepinephrine uptake, human recombinant NET in MDCK cells. Here is the method:
Human Norepinephrine Transporter (NET) Functional Antagonist Uptake Assay was carried out at Panlabs Cerep (assay#302100). Human recombinant norepinephrine transporter expressed in MDCK cells were plated overnight. Test compound and/or vehicle was pre-incubated with cells (2×10E5/ml) in modified Tris-HEPES buffer pH 7.1 for 20 minutes at 25° C. and 25 nM [3H]Norepinephrine was then added for an additional 15 minute incubation period. A lysate was obtained from solubilized cells and counted to determine [3H]Norepinephrine uptake. Reduction of [3H]Norepinephrine uptake by 50 percent or more (≥50%) relative to 10 μM desipramine indicates significant inhibitory activity. Compounds are screened at 10, 3, 1, 0.3, 0.1, 0.03, 0.01 and 0.003 μM. These same concentrations are concurrently applied to a separate group of untreated cells and evaluated for possible compound-induced cytotoxicity only if significant inhibition of uptake is observed. IC50 values were determined by a non-linear, least squares regression analysis using MathIQTM (IDBusiness Solutions Ltd., UK).

Where [4] appears, read: FaSSIF pH 6.5, shaken 24 hours at 25° C., read-out: pH 6.5 (FaSSIF) solubility.
Where [5] appears, read: phosphate buffered saline (PBS) pH 2, aqueous buffer, PBS pH 2, shaken 24 hours at 25° C., read-out: pH 2 solubility.

Structures are written as SMILES. Converted amounts (≈) assume the structure as drawn. Where two headings read alike, the source gives them in different places.

T1 sequence (P06870 25-262): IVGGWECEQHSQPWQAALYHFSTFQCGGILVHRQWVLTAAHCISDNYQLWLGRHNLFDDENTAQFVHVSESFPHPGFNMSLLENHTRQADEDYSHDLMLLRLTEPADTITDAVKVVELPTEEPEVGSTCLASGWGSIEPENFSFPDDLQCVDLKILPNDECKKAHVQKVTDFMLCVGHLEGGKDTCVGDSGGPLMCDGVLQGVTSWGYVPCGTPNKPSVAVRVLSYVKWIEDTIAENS

In data set [1], `CCOC(=O)c1[nH]c2nc1-c1ccc(NC(=O)OC)cc1NC(=O)C(C)(C)CCC[C@@H]2c1ccc(-c2cc(F)ccc2-n2cc(C(F)(F)F)cn2)c[n+]1[O-]` [Example 1, (R,Z)-2-(1^5-(ethoxycarbonyl)-2^4-((methoxycarbonyl)amino)-5,5-dimethyl-4-oxo-1^1H-3-aza-1(4,2)-imidazola-2(1,2)-benzenacyclononaphane-9-yl)-5-(5-fluoro-2-(4-(trifluoromethyl)-1H-pyrazol-1-yl)phenyl)pyridine 1-oxide] returned an MRT of 4 h. Also, the figures for the IC50 (at human tissue kallikrein; in data set [3]) were above 167 µM and above 10 µM, respectively. Further, the solubility kinetic at 24 h in data set [2] (setting [4]) worked out at 39 µM (≈ 29.2 µg/mL); in data set [2] (setting [5]), 147 µM (≈ 110 µg/mL).
With `CCOC(=O)c1[nH]c2nc1-c1ccc(NC(=O)OC)cc1NC(=O)C(C)(C)CCC[C@@H]2c1ccc(-c2cc(Cl)ccc2-n2cc(C(F)(F)F)cn2)c[n+]1[O-]` [Example 2, (R,Z)-5-(5-chloro-2-(4-(trifluoromethyl)-1H-pyrazol-1-yl)phenyl)-2-(1^5-(ethoxycarbonyl)-2^4-((methoxycarbonyl)amino)-5,5-dimethyl-4-oxo-1^1H-3-aza-1(4,2)-imidazola-2(1,2)-benzenacyclononaphane-9-yl)pyridine 1-oxide], in data set [1], the MRT turned out to be 3.7 h. The IC50 at human tissue kallikrein was above 167 µM; in data set [3], above 10 µM. Besides, the solubility kinetic at 24 h in data set [2] (setting [4]) was found to be 27 µM (≈ 20.7 µg/mL); in data set [2] (setting [5]), 104 µM (≈ 79.7 µg/mL).
The matching figures for `CCOC(=O)c1[nH]c2nc1-c1ccc(NC(=O)OC)cc1NC(=O)C(C)(C)CCC[C@@H]2c1ccc(-c2cc(F)ccc2OC(F)F)c[n+]1[O-]` [Example 3, (R,Z)-5-(2-(difluoromethoxy)-5-fluorophenyl)-2-(1^5-(ethoxycarbonyl)-2^4-((methoxycarbonyl)amino)-5,5-dimethyl-4-oxo-1^1H-3-aza-1(4,2)-imidazola-2(1,2)-benzenacyclononaphane-9-yl)pyridine 1-oxide]: 3.2 h, 0.886 µM, above 10 µM, 40 µM (≈ 27.3 µg/mL) and 171 µM (≈ 117 µg/mL).
The like results for `CCOC(=O)c1[nH]c2nc1-c1ccc(NC(=O)OC)cc1NC(=O)C(C)(C)CCC[C@@H]2c1ccc(-c2cc(Cl)cnc2OC(F)F)c[n+]1[O-]` [Example 4, (R,Z)-5′-chloro-2′-(difluoromethoxy)-6-(1^5-(ethoxycarbonyl)-2^4-((methoxycarbonyl)amino)-5,5-dimethyl-4-oxo-1^1H-3-aza-1(4,2)-imidazola-2(1,2)-benzenacyclononaphane-9-yl)-[3,3′-bipyridine] 1-oxide] were, in that order, 3.8 h, above 167 µM, above 10 µM, 33 µM (≈ 23.1 µg/mL) and 137 µM (≈ 95.8 µg/mL).
The like results for `CCOC(=O)c1[nH]c2nc1-c1ccc(NC(=O)OC)cc1NC(=O)C(C)(C)CCC[C@@H]2c1ccc(-c2cccc(Cl)c2F)c[n+]1[O-]` [Example 5, (R,Z)-5-(3-chloro-2-fluorophenyl)-2-(1^5-(ethoxycarbonyl)-2^4-((methoxycarbonyl)amino)-5,5-dimethyl-4-oxo-1^1H-3-aza-1(4,2)-imidazola-2(1,2)-benzenacyclononaphane-9-yl)pyridine 1-oxide] were, in that order, 3.7 h, 15 µM, above 10 µM, 51 µM (≈ 33.2 µg/mL) and 108 µM (≈ 70.2 µg/mL).
The molecule `COC(=O)Nc1ccc2c(c1)NC(=O)C(C)(C)CCC[C@H](c1ccc(-c3cc(F)ccc3-n3cc(C(F)(F)F)cn3)c[n+]1[O-])c1nc-2c(C(=O)OC)[nH]1` [Example 6, (R,Z)-5-(5-fluoro-2-(4-(trifluoromethyl)-1H-pyrazol-1-yl)phenyl)-2-(1^5-(methoxycarbonyl)-2^4-((methoxycarbonyl)amino)-5,5-dimethyl-4-oxo-1^1H-3-aza-1(4,2)-imidazola-2(1,2)-benzenacyclononaphane-9-yl)pyridine 1-oxide] returned an MRT in data set [1] of 3.1 h. The concentration for half-maximal inhibition (IC50) at human tissue kallikrein is above 167 µM; in data set [3] it was above 10 µM. Besides, the solubility kinetic at 24 h in data set [2] (setting [4]) worked out at 64 µM (≈ 47.1 µg/mL); in data set [2] (setting [5]), 163 µM (≈ 120 µg/mL).
